For one experiment, the system named is HCT116 cells. Briefly: Flow cytometry cell cycle analysis of HCT116 cells. As to conditions: HCT116, 16 hrs, FIG. 9. In kind it is cell-based. As for the experimental part:
In order to test the inhibitory effect of candidate compounds on the transcription of endogenous Wnt/β-cat target genes in HCT116 cells, lysates were prepared from cells that were either treated with candidate small molecules or DMSO control. […] Cell cycle arrest of compound treated HCT116 cells was further confirmed by the reduced number of phosphorylated Histone3 (PH3) positive cells, when cultured in the presence of candidate compounds (FIG. 10).
Flow Cytometry analysis was performed on HCT116 cells treated with candidate compounds for 16 hrs per standard protocols. Briefly, compound treated cells were harvested and washed in 1×PBS followed by fixation in 70% Ethanol at 4° C. for 16 hrs. Cells were then washed in 1×PBS and treated with RNAse at 37° C. for 30′. Following extensive washes in 1×PBS, cellular DNA was stained with 500 ug/ml of Propidium Iodide at room temperature for 10′. Cells were washed again in 1×PBS and analysed by flow cytometry on a FACScalibur machine (Beckson Dickinson) at the NYU flow cytometry core facility.

Experiment [1] has as its system Wnt/wg pathway, Wnt-responsive luciferase reporter dTF12. Description: Wg-responsive dTF12 (TOP12) luciferase reporter assay in Drosophila Clone 8 cells, pathway activated by Axin dsRNA. Format: cell-based. Particulars: Drosophila melanogaster; luciferase assay method in Drosophila Clone 8 cells. From the text: The present inventors employed a novel methodology that integrates a “sensitized” chemical genetic high-throughput screen (HTS) with RNA-interference (RNAi) screening technology in order to identify specific small molecule inhibitors of the Wnt pathway in Drosophila cells. As described herein, Drosophila Clone 8 cell-based assay systems developed by the present inventors to investigate the Wnt/wg pathway [DasGupta et al. Science 308, 826-33 (2005)] were used in a small molecule chemical genetic screen to identify specific inhibitors of the pathway. These cell-based assays, which are described in detail below, utilize a Wnt-responsive luciferase reporter […], the activity of which can be determined using […]. The present inventors used the small-molecule library available from the Institute of Chemistry and Cellular Biology (ICCB-Longwood) at Harvard Medical School, Boston, for the screen. […] The resultant activation of the Wnt signaling pathway is then detected by assessing the activity of the Wnt-responsive luciferase reporter gene in the cell-based assay system. […] Primary Small Molecule Screen for the Wingless Signaling Pathway in Drosophila Clone 8 Cells Set up transfection with Wg-reporter ([…]), Normalization vector (PolIII-RL) and dsRNA against […] specific towards Drosophila Axin and lacks any predicted off-targets). 1. Add 40,000 Drosophila Clone 8 cells (in 40 μL) in 384-well plate (white solid bottom, Corning Costar) using the multidrop. 2. Add 20 μLof Transfection mix in each well of a 384-well plate (Corning Costar) using the multidrop. Incubate at 25° C. for 4 days to ensure complete knockdown of Axin. Add small molecule library (Cybio Robot). Incubate 18 hrs. Assay luminescence from the samples using the “Dual-Glo” luciferase kit (Promega Inc.). Specifically, aspirate supernatant and add 20 μL media+20 μL luciferase buffer using the multidrop. Read Firefly Luciferase activity on the EnVision (Perkin Elmer plate reader). Add 20 μL of Stop&Glo using the multidrop. Read Renilla luciferase activity on the EnVision (Perkin Elmer plate reader). The Wnt signaling pathway was induced by the introduction of dsRNAs specific for Axin into Clone 8 cells comprising the Wg-responsive luciferase reporter-gene ([…]). As described herein, Axin is a scaffold protein that negatively regulates Arm/β-cat by promoting its degradation. Thereafter, a selected set of a small molecule library was added to the Clone 8 cell-based assay system to assess the effect of individual compounds on (Axin dsRNA-mediated) activated CRT by monitoring the activity of the Wg-responsive luciferase reporter-gene ([…]). […] For the purpose of Table 11 below, activity of each compound is determined using the luciferase assay method in Drosophila Clone 8 cells.

Experiment [2] relates to C57 mg mouse mammary epithelial cell line. Briefly: C57mg transformation assay (Wnt3a induced). Format: cell-based. Particulars: 10 ng/μl, 5 days, FIG. 5. Here is the method: The transformation assay was carried out in a 96 well format. C57 mg cells were cultured in DMEM/10% FBS supplemented with purified Wnt3a protein (R&D Systems) to a final concentration of […]. Small molecule compounds dissolved in DMSO were added to a final concentration of 10 ng/μl and 0.01% DMSO. Following incubation at 37° C. for 5 days, cells were fixed with 4% Formaldehyde in 1×PBS at RT for 30 min and washed subsequently with 1×PBS at room temperature (RT) for 5 minutes (×3). Cells were then permeabilized in Blocking buffer (0.1% Triton-X/1×PBS/5% Normal Goat Serum) at RT for 20 min, subsequent to which, cells were incubated with anti-β-cat at RT for 1 hour (diluted to 1:1000 in blocking buffer). Subsequently, cells were washed with 1×PBS at RT for 10 minutes (×3) and then incubated with secondary antibody and Alexa-Fluor 488 conjugated phalloidin in Blocking buffer at RT for 1 hour. Following a brief wash in 1×PBS, cells were imaged in PBS buffer using the Array-Scan imaging system.
Transformation of the cell line is evidenced by pronounced changes in morphology, typified by formation of chord-like bundles of cells or foci-forming colonies that break off and float in the media [Wong et al. supra, 1994]. This Wnt responsive phenotype provides a mammalian assay in which to evaluate the inhibitory effect of the small molecule inhibitors identified in the primary screen. Briefly, cells are cultured in Wnt3a conditioned media in the presence or absence of a small molecule inhibitor and morphological analysis conducted using automated microscopy.
The present inventors have established a phenotypic assay using the Wnt-responsive C57 mg mouse mammary epithelial cell line to ascertain the validity of the inhibitory compounds identified in the primary screen. Specifically, addition of Wnt3a conditioned media or purified Wnt3a protein results in cellular transformation, manifested by a pronounced change from an epithelial-cell like morphology to those resembling spindle shaped cells with chord like bundles. […] The Array-Scan imagining system (Cellomics Inc.) is used to image such phenotypic changes in a 96-well plate format so as to gain a quantitative estimate of the degree of the inhibitory effect of the compounds on Wnt3a induced transformation in C57 mg cells. Quantitative analysis of the transformation phenotype is measured by the degree of actin fiber alignment (defined as anisotropy), which is expressed as the standard deviation (SD) of the angles projected by the actin fibers relative to the normal; low SD numbers reflect an increase in Wnt-responsive transformation. This approach allows for objective inferences on the cellular effects of the candidate inhibitors.

Experiment [3] concerns Wnt-responsive STF16 luciferase reporter in HEK 293 cells. Description: Wnt-responsive STF16 luciferase reporter assay in HEK 293 cells. In kind it is cell-based, mammalian. Particulars: 2.5 ng/μl, Wnt3a conditioned media, FIG. 4. Here is the method:
HEK 293 cells were transfected with 50 ng each of the Wnt-responsive STF16 luciferase reporter and pCMV-RL normalization reporter using the Lipofectamine LTX (Invitrogen Inc.) in a 96 well plate format. Cells were cultured in DMEM/10% FBS at 37° C. for 2 days following which, they were induced with Wnt3a conditioned media for 1 day and then treated with small molecule compounds to a final concentration of 2.5 ng/μl for approximately 18 hours. Luciferase reporter activity was then measured using the Dual-Glo system (Promega Inc.) on the Envision Plate Reader. Normalized luciferase activity in response to treatment with candidate small molecule compounds was compared to that obtained from cells treated with DMSO. In order to confirm and corroborate the activity of CRT inhibitor compounds in a mammalian context, the present inventors have tested a subset of the inhibitors identified in the context of established mammalian cell lines. […] Briefly, HEK 293 cells were transfected with pSTF16-LF along with the normalization reporter, pCMV-RL and the effect of the compounds on reporter activity in such cells was determined by quantifying the luminescence from the luciferase reporter gene as described in Dasgupta et al. [supra (2005)].
A general note: Reporter assays use an easily measured gene product as a stand-in for the process of interest.

What is called IC50 is the midpoint of a concentration-inhibition curve. A lower IC50 goes with higher potency.

Take `Cc1cc(/C=C2\SC(=O)N(c3ccccc3)C2=O)c(C)n1-c1cccnc1` [Compound C14]: in the experiment on HCT116 cells, the cell cycle effect entry is “G0/G1 arrest”. `CCc1ccc(-c2nc(CSCC(=O)NCc3ccccc3)c(C)o2)cc1` [IIa-66] displayed an IC50 in experiment [1] of 3.51 µM. Same read-out and setting: the same measure for `COc1cccc(/C=C2\SC(=S)N(CCCC(=O)O)C2=O)c1OC` [IIa-143]: 3.06 µM; for `CCc1ccc(-c2nc(CSCC(=O)NCCc3ccccc3)c(C)o2)cc1` [IIa-333]: 4.18 µM.

As for `O=C(CCCN1C(=O)/C(=C/c2cccs2)SC1=S)Nc1ccc(O)cc1` [IIa-432], the “inhibition of Wnt3a induced C57 mg transformation” value in experiment [2] was “significant inhibition”. This compound also yielded an IC50 in experiment [1] of 4.76 µM. The “inhibition of Wnt responsive luciferase reporter activity in HEK-293 cells” value in experiment [3] is “poor inhibitors”. Regarding `CCc1ccc(-c2nc(CSCC(=O)NC3CC3)c(C)o2)cc1` [IIa-719], in experiment [2], the “inhibition of Wnt3a induced C57 mg transformation” value was “partial reduction”. In experiment [1], the IC50 stood at 1.58 µM. In the case of `Cc1ccc(-c2nc(CSCC(=O)NC3CC3)c(C)o2)cc1` [IIa-722], the “inhibition of Wnt3a induced C57 mg transformation” value in experiment [2] is given as “partial reduction”. In experiment [1], this compound gave an IC50 of 1260 µM. On to `CCc1ccc(-c2nc(CSCC(=O)N3CCc4ccccc43)c(C)o2)cc1` [IIa-2102], for which the “inhibition of Wnt3a induced C57 mg transformation” value in experiment [2] is given as “partial reduction”. Besides, in experiment [1], the IC50 is 1.1 µM.

The values above are taken from patent US9173871B2, “Oxazole and thiazole compounds as beta-catenin modulators and uses thereof” (New York University, priority 2008, dated 2015).
